Results on three molecules are retold here after patent publication US20230405145A1, “IRON OXIDE NANOPARTICLE FOR SUPPRESSING DRUG-RESISTANT GENE FOR THE TREATMENT OF GLIOBLASTOMA” (University of Washington, priority 2020, published 2023).

The conditions of series [1]: systemic administration; cited from earlier work.
In a further series the test system is primary brain tumors. The note with it: cited from earlier work.
Another series concerns A1235 cells. The series is described as follows: Clonogenic assay, MGMT-deficient A1235 cells. The conditions noted are these: A1235 (GBM cell line).
A further series deals with GBM6 cells. The experiment in a line: Alamar blue viability assay, GBM6 stem-like cells. The conditions noted are these: GBM6 (cancer stem cell).
In a further series the test system is SF763 cells. The experiment in a line: Clonogenic assay, MGMT-proficient SF763 cells. The conditions noted are these: SF763 (GBM cell line).
Series [2] relates to GBM6 orthotopic xenograft. The experiment in a line: Kaplan-Meier survival, orthotopic GBM6 xenograft. The format is in vivo, NOD-SCID mice. The procedure:
The mice were closely monitored during the entire treatment period until the time of euthanasia. […] Mice treated with NP-siMGMT-CTX extended their lifespan for 18.3 days while mice treated with TMZ alone extended their lifespan for 2.3 days.
Orthotopic xenograft tumor model and therapy response experiments. All xenograft therapy evaluations were conducted using a GBM6 orthotopic tumor model. The human GBM6 tumor was provided by the Mayo Clinic. The procedure for establishing intracranial tumors was described previously (B. L. Carlson, J. L. Pokorny, M. A. Schroeder, J. N. Sarkaria, Current Protocols in Pharmacology 2011, 52, 1; B. L. Carlson, P. T. Grogan, A. C. Mladek, M. A. Schroeder, G. J. Kitange, P. A. Decker, C. Giannini, W. Wu, K. A. Ballman, C. D. James, J. N. Sarkaria, International Journal of Radiation Oncology, Biology, Physics 2009, 75, 212). In brief, flank GBM6 tumor xenografts were harvested, mechanically disaggregated and stereotaxically injected into the frontal lobe of 6-week-old female NOD-SCID mice (Jackson Laboratories). […] At about 4 weeks post-tumor implantation, mice with similar tumor size as evaluated by MRI were randomized to one treatment group treated with NP-siMGMT-CTX+TMZ, and three control groups treated with either NP-siGFP-CTX+TMZ, TMZ only, or untreated. […]

Method for GBM6 cells: Cell survival assays. Alamar blue assay was used to evaluate cell viability following the manufacture's protocol (Life Technologies). […] AB assay was conducted at 2 days after transfection. Cells were washed with PBS (pH 7.4) three times before adding 10% AB in complete growth medium to the wells. After incubation for 1 hr, the AB solution was transferred to a 96-well plate, and fluorescent emissions at an excitation wavelength of 550 nm and an emission wavelength of 590 nm were read on a SpectraMax M5 microplate reader (Molecular Devices).

Regarding `Nc1nc(OCc2ccccc2)c2nc[nH]c2n1` [BG, O^6-benzylguanine], the “toxicity in combination with TMZ” value in series [1] is listed as “severe myelotoxicity”.

For the molecule chlorotoxin [CTX], in the series on primary brain tumors, the “primary brain tumors targeted, of those examined” value was 74 out of 79.

Take `Cn1nnc2c(C(N)=O)ncn2c1=O` [TMZ, temozolomide]: the entries for the “TMZ required for effective treatment” value with A1235 cells, in the series on GBM6 cells and with SF763 cells were 10 µM, 4 mM and 400 µM, respectively. The median survival in series [2] (NPs given with TMZ per FIG. 5A schedule, TMZ 100 mg/kg oral) was 40.8 ± 2.7 days. Besides, the extension of lifespan in series [2] (versus untreated mice) was determined as 2.3 days.
